# Patent publication US20230233576A1, “ECLITASERTIB FOR USE IN TREATING CONDITIONS INVOLVING SYSTEMIC HYPERINFLAMMATORY RESPONSE” (priority 2020, published 2023)
# System: adult participants hospitalized for severe COVID-19
# Assay: Phase 1b severe COVID-19 study: adverse events and deaths
# Format: in vivo, human
# Description: Safety evaluation was based on adverse events (Aes) including serious adverse events (SAEs) and adverse events of special interest (AESIs) (i.e., pregnancy, symptomatic overdose with IMP. Alanine aminotransferase [ALT] increase, and anemia), and treatment-emergent adverse events (TEAEs) leading to treatment discontinuation.
# The primary focus of AE reporting was on treatment emergent adverse events (TEAEs). Treatment emergent adverse events were Aes that were not present at baseline or represented the exacerbation of a pre-existing condition during the on-treatment period (treatment-emergent period), defined as the time from the first administration of the IMP up to and including the day of last dose of study drug plus 5 days.
# All adverse events were coded to a “preferred term (PT)”, “high-level term (HLT)”, “high-level group term (HLGT)”, and associated primary SOC using Medical Dictionary for Regulatory Activities (MedDRA) version 23.1.
# The number and cumulative incidence rate of deaths [%] during the on-study period were computed by treatment group: number of deaths divided by the number of participants. Kaplan-Meier plot for time to death was presented by treatment group.
# [1] = 600 mg (N = 47), Safety population
smiles,measurement,setting,value
"CN1C(=O)[C@@H](NC(=O)c2nnc(Cc3ccccc3)[nH]2)COc2cccnc21 [RIPK1 Inhibitor, (S)-5-benzyl-N-(5-methyl-4-oxo-2,3,4,5-tetrahydropyrido[3,2-b][1,4]oxazepin-3-yl)-4H-1,2,4-triazole-3-carboxamide]",intensity of the majority of the TEAEs,600 mg,grade 2
same,participants with PCSAs in hemoglobin and hematocrits considered as TEAEs of anemia,600 mg,1 participants
same,Participants with TEAE(s) (SAE): Any class,[1],6 (12.8) n (%)
same,Participants with TEAE(s) (SAE): PT Bacterial infection,[1],1 (2.1) n (%)
same,Participants with TEAE(s) (SAE): PT Cardiac arrest,[1],0 n (%)
same,Participants with TEAE(s) (SAE): PT Condition aggravated,[1],2 (4.3) n (%)
same,Participants with TEAE(s) (SAE): PT Peripheral artery thrombosis,[1],1 (2.1) n (%)
same,Participants with TEAE(s) (SAE): PT Pneumonia bacterial,[1],1 (2.1) n (%)
same,Participants with TEAE(s) (SAE): PT Pseudomonas infection,[1],1 (2.1) n (%)
same,Participants with TEAE(s) (SAE): PT Pulmonary embolism,[1],1 (2.1) n (%)
same,Participants with TEAE(s) (SAE): PT Respiratory failure,[1],0 n (%)
same,Participants with TEAE(s) (SAE): SOC CARDIAC DISORDERS,[1],0 n (%)
same,Participants with TEAE(s) (SAE): SOC GENERAL DISORDERS AND ADMINISTRATION SITE CONDITIONS,[1],2 (4.3) n (%)
same,Participants with TEAE(s) (SAE): SOC INFECTIONS AND INFESTATIONS,[1],3 (6.4) n (%)
same,"Participants with TEAE(s) (SAE): SOC RESPIRATORY, THORACIC AND M[…]",[1],1 (2.1) n (%)
same,Participants with TEAE(s) (SAE): SOC VASCULAR DISORDERS,[1],1 (2.1) n (%)
same,"TEAE, Any class: number of participants",[1],24
same,"TEAE, Any class: percentage of participants",[1],(51.1) %
same,"TEAE, PT Alanine aminotransferase increased: number of participants",[1],6
same,"TEAE, PT Alanine aminotransferase increased: percentage of participants",[1],(12.8) %
same,"TEAE, PT Anaemia: number of participants",[1],1
same,"TEAE, PT Anaemia: percentage of participants",[1],(2.1) %
same,"TEAE, PT Anxiety disorder: number of participants",[1],1
same,"TEAE, PT Anxiety disorder: percentage of participants",[1],(2.1) %
same,"TEAE, PT Arterial injury: number of participants",[1],1
same,"TEAE, PT Arterial injury: percentage of participants",[1],(2.1) %
same,"TEAE, PT Aspartate aminotransferase increased: number of participants",[1],1
same,"TEAE, PT Aspartate aminotransferase increased: percentage of participants",[1],(2.1) %
same,"TEAE, PT Back pain: number of participants",[1],1
same,"TEAE, PT Back pain: percentage of participants",[1],(2.1) %
same,"TEAE, PT Bacterial infection: number of participants",[1],1
same,"TEAE, PT Bacterial infection: percentage of participants",[1],(2.1) %
same,"TEAE, PT Blood pressure increased: number of participants",[1],0
same,"TEAE, PT Cardiac arrest: number of participants",[1],0
same,"TEAE, PT Cerebral ischaemia: number of participants",[1],0
same,"TEAE, PT Chest discomfort: number of participants",[1],1
same,"TEAE, PT Chest discomfort: percentage of participants",[1],(2.1) %
same,"TEAE, PT Cholelithiasis: number of participants",[1],0
same,"TEAE, PT Constipation: number of participants",[1],1
same,"TEAE, PT Constipation: percentage of participants",[1],(2.1) %
same,"TEAE, PT Dehydration: number of participants",[1],1
same,"TEAE, PT Dehydration: percentage of participants",[1],(2.1) %
same,"TEAE, PT Diarrhoea: number of participants",[1],4
same,"TEAE, PT Diarrhoea: percentage of participants",[1],(8.5) %
same,"TEAE, PT Drug hypersensitivity: number of participants",[1],1
same,"TEAE, PT Drug hypersensitivity: percentage of participants",[1],(2.1) %
same,"TEAE, PT Dyspepsia: number of participants",[1],0
same,"TEAE, PT Dyspnoea: number of participants",[1],1
same,"TEAE, PT Dyspnoea: percentage of participants",[1],(2.1) %
same,"TEAE, PT Emphysema: number of participants",[1],1
same,"TEAE, PT Emphysema: percentage of participants",[1],(2.1) %
same,"TEAE, PT Encephalopathy: number of participants",[1],0
same,"TEAE, PT Fatigue: number of participants",[1],1
same,"TEAE, PT Fatigue: percentage of participants",[1],(2.1) %
same,"TEAE, PT Flatulence: number of participants",[1],1
same,"TEAE, PT Flatulence: percentage of participants",[1],(2.1) %
same,"TEAE, PT Furuncle: number of participants",[1],0
same,"TEAE, PT Gastritis: number of participants",[1],0
same,"TEAE, PT Gastrooesophageal sphincter insufficiency: number of participants",[1],0
same,"TEAE, PT Hyperglycaemia: number of participants",[1],1
same,"TEAE, PT Hyperglycaemia: percentage of participants",[1],(2.1) %
same,"TEAE, PT Hypertension: number of participants",[1],1
same,"TEAE, PT Hypertension: percentage of participants",[1],(2.1) %
same,"TEAE, PT Hypoglycaemia: number of participants",[1],1
same,"TEAE, PT Hypoglycaemia: percentage of participants",[1],(2.1) %
same,"TEAE, PT Hypophosphataemia: number of participants",[1],1
same,"TEAE, PT Hypophosphataemia: percentage of participants",[1],(2.1) %
same,"TEAE, PT Metabolic acidosis: number of participants",[1],0
same,"TEAE, PT Nausea: number of participants",[1],1
same,"TEAE, PT Nausea: percentage of participants",[1],(2.1) %
same,"TEAE, PT Non-cardiac chest pain: number of participants",[1],1
same,"TEAE, PT Non-cardiac chest pain: percentage of participants",[1],(2.1) %
same,"TEAE, PT Noninfective bronchitis: number of participants",[1],0
same,"TEAE, PT Oesophageal ulcer: number of participants",[1],0
same,"TEAE, PT Oesophagitis: number of participants",[1],0
same,"TEAE, PT Oropharyngeal pain: number of participants",[1],1
same,"TEAE, PT Oropharyngeal pain: percentage of participants",[1],(2.1) %
same,"TEAE, PT Ovarian cyst: number of participants",[1],0
same,"TEAE, PT Peripheral artery thrombosis: number of participants",[1],1
same,"TEAE, PT Peripheral artery thrombosis: percentage of participants",[1],(2.1) %
same,"TEAE, PT Pleural effusion: number of participants",[1],0
same,"TEAE, PT Pneumomediastinum: number of participants",[1],0
same,"TEAE, PT Pneumonia bacterial: number of participants",[1],1
same,"TEAE, PT Pneumonia bacterial: percentage of participants",[1],(2.1) %
same,"TEAE, PT Pneumonia: number of participants",[1],0
same,"TEAE, PT Pneumoperitoneum: number of participants",[1],0
same,"TEAE, PT Pneumothorax: number of participants",[1],0
same,"TEAE, PT Procedural pneumothorax: number of participants",[1],0
same,"TEAE, PT Pseudomembranous colitis: number of participants",[1],1
same,"TEAE, PT Pseudomembranous colitis: percentage of participants",[1],(2.1) %
same,"TEAE, PT Pseudomonas infection: number of participants",[1],1
same,"TEAE, PT Pseudomonas infection: percentage of participants",[1],(2.1) %
same,"TEAE, PT Psychomotor hyperactivity: number of participants",[1],0
same,"TEAE, PT Pulmonary embolism: number of participants",[1],1
